From patent US11884649B2, “IRE1α inhibitors and uses thereof” (The Regents of the University of California, priority 2020, dated 2024)

Columns and labels:
[1] = test system: RIDD (IRE1α-dependent mRNA decay); assay: Real-time PCR of RIDD mRNA targets in INS-1 cells overexpressing IRE1α (Dox); assay type: cell-based, rat; conditions: 3, 10 μM for 1 hour, then Dox (5 ng/mL) for 24 hours
Protocol: (§1) RNA Isolation, Quantitative Real-Time PCR, and Primers
(§2) INS-1 or isogenic IRE1α-overexpressing INS-1 cells were plated onto Poly-D-Lysine coated tissue culture plate and grown for 48 hrs. Inhibitors or DMSO were added to the media and incubated for 1 hour at 37° C. with 5% CO2 prior to addition of ER stress agents or Dox as indicated. RNA was isolated from whole cells using either QIAGEN RNeasy Mini kits or Trizol (Invitrogen) and reverse transcribed as above to obtain total cDNA. Then, XBP-1 primers were used to amplify an XBP-1 amplicon spanning the 26 nt intron from the cDNA samples in a regular 3-step PCR. Thermal cycles were: 5 min at 95° C., 30 cycles of 30 s at 95° C., 30 s at 60° C., and 1 min at 72° C., followed by 72° C. for 15 min, and hold at 4° C. Primers used for XBP-1 mRNA splicing were as follows: sense primer XBP1.3 S (5′ […]-3′ (SEQ ID NO:2)) and antisense primer XBP1.2AS (5′-[…]-3′ (SEQ ID NO:3)). PCR fragments were then digested by PstI, resolved on 3% agarose gels, stained with EtBr and quantified by densitometry using ImageJ (NIH). For standard mRNA detection, generally […] total RNA was reverse transcribed using the QuantiTect Reverse Transcription Kit (QIAGEN). For qPCR, we used SYBR green (QIAGEN) and StepOnePlus Real-Time PCR System (Applied Biosystems). Thermal cycles were: 5 min at 95° C., 40 cycles of 15 sec at 95° C., 30 sec at 60° C. Gene expression levels were normalized to Beta Actin. Primers used for qPCR of RIDD targets were as follows: Beta Actin Fwd: 5′-[…]-3′ (SEQ ID NO:4), Beta Actin Rev: 5′-[…]-3′ (SEQ ID NO:5), Insulin 1 Fwd: 5′-GTCCTCTGGGAGCCCAAG-3′ (SEQ ID NO:6), Insulin 1 Rev: 5′-ACAGAGCCTCCACCAGG-3′ (SEQ ID NO:7), Insulin 2 Fwd: 5′-ATCCTCTGGGAGCCCCGC-3′ (SEQ ID NO:8), Insulin 2 Rev: 5′-AGAGAGCTTCCACCAAG-3′ (SEQ ID NO:9), Blos1 Fwd: 5′-[…]-3′ (SEQ ID NO:10), and Blos1 Rev: 5′-[…]-3′ (SEQ ID NO:11).
Real-Time PCR (Q-PCR) used SYBR green and Step OnePlus Real-Time PCR System (Applied Biosystems). Thermal cycles were: 5 min at 95° C., 40 cycles of 15 s at 95° C., 30 s at 60° C. Gene expression levels were normalized to GAPDH. Q-PCR Sense/antisense primers used: Rat GAPDH, 5′-[…]-3′ (SEQ ID NO:14) and 5′-[…]-3′ (SEQ ID NO:15); Rat Ins1, 5′-GTCCTCTGGGAGCCCAAG-3′ (SEQ ID NO:6) and 5′-ACAGAGCCTCCACCAGG-3′ (SEQ ID NO:7); Rat Pdia4, 5′-CGTCTCGCCCTGATTCGT-3′ (SEQ ID NO:16) and 5′-[…]-3′ (SEQ ID NO:17); Rat Blos1, 5′-[…]-3′ (SEQ ID NO:18) and 5′-TGTCCAGTTCGATGCTCCG-3′ (SEQ ID NO:19).
Real-time PCR for FIGS. 34A-34F: Real-Time PCR (Q-PCR) used SYBR green and Step OnePlus Real-Time PCR System (Applied Biosystems). Thermal cycles were: 5 min at 95° C., 40 cycles of 15 s at 95° C., 30 s at 60° C. Gene expression levels were normalized to GAPDH. Q-PCR Sense/antisense primers used: Rat GAPDH, 5′-[…]-3′ (SEQ ID NO:20) and 5′-[…]-3′ (SEQ ID NO:21); Rat Ins1, 5′-GTCCTCTGGGAGCCCAAG-3′ (SEQ ID NO:6) and 5′-ACAGAGCCTCCACCAGG-3′ (SEQ ID NO:7); Rat Ins2, 5′-ATCCTCTGGGAGCCCCGC-3′ (SEQ ID NO:8) and 5′-AGAGAGCTTCCACCAAG-3′ (SEQ ID NO:9); Rat Pdia4, 5′-[…]-3′(SEQ ID NO:22) and 5′-[…]-3′ (SEQ ID NO:23); Rat Blos1, 5′-[…]-3′ (SEQ ID NO:18) and 5′-TGTCCAGTTCGATGCTCCG-3′ (SEQ ID NO:19).

IRE1α* = target: T1, IRE1α* (Homo sapiens, UniProt O75460); assay: In vitro kinase activity assay (IRE1α kinase inhibition); assay type: biochemical; conditions: IRE1α kinase inhibition; read-out: IC50 IRE1a
T1 construct: human IRE1α (residues 547-977, IRE1α*) was expressed in SF9 insect cells; His6 (N); made in house; host or cells: Sf9 insect cells (Bac-to-Bac baculovirus)
Protocol: A construct containing the cytosolic kinase and RNase domains of human IRE1α (residues 547-977, IRE1α*) was expressed in SF9 insect cells by using the Bac-to-Bac baculovirus expression system (Invitrogen) with a His6 tag at the N-terminus and purified with a nickel-nitriloacetic acid (Qiagen) column. To generate dP-IRE1α*, we removed basal phosphorylation sites by incubating IRE1α* with λ-PPase (New England Biolabs) at a molar ratio of 5:1 (IRE1α*: λ-PPase) in 50 mM HEPES pH 7.5, 100 mM NaCl, 1 mM MnCl2, 2 mM dithiothreitol (DTT) and 0.01% Brij 35 detergent (v/v) overnight at 4° C. Dephosphorylation was verified through western blotting using a universal phospho-protein detection agent (biotin-pIMAGO (Tymora Analytical Operations, Cat. No.: FL800) and imaged using a streptavidin-linked fluorophore.
In Vitro Kinase Activity Assay
Inhibitors (initial concentration of 10 or 60 μM, three-fold serial dilutions) were incubated with IRE1α* in cleavage buffer (20 mM HEPES, 0.05% Triton X-100 (v/v), 50 mM KCl, 1 mM MgCl2, 1 mM DTT, pH 7.5) for 30 min, followed by incubation with 10 μCi [γ^32P] ATP (3,000 Ci mmol^−1, PerkinElmer) at 23° C. for 3 hours. Samples were then spotted onto glass fiber paper (Easytab-C Glass Fiber Filter Paper, Perkin Elmer) and washed in twice with 0.5% phosphoric acid and autoradiographed using a GE Typhoon FLA 9000 Imager. Blots were quantitated using ImageQuant software. The percent inhibition was quantified by setting the background (no kinase well) as 0 and standardizing to IRE1α* without compound treatment (IRE1α*+DMSO). Dose-response curves were fit using “one-site fit log IC50” parameter using GraphPad Prism analysis software.
Compound Characterization (IC50 IRE1α Kinase Inhibition)

XBP1 mRNA splicing = XBP1 mRNA splicing in INS-1 cells conditionally overexpressing IRE1α (Dox); assay type: cell-based, rat; conditions: 3, 10 μM for 1 hour, then Dox (1 μg/mL) for 4 hours
Protocol: as §1, §2
(§3) RNA was extracted using Trizol (Invitrogen), DNaseI treated, and cDNA products encompassing the intron amplified by QuantiTect Reverse Transcription Kit (Qiagen). sense Primer rXBP Forward (5′-[…]-3′ (SEQ ID NO:12)) and antisense primer rXBP Reverse (5′-[…]-3′ (SEQ ID NO:13)) were used. PCR fragments were digested by PstI, resolved on 3% agarose gels, stained with EtBr, and quantified by densitometry.
as §3, with “XBP1 splicing for FIGS. 33A-33F: RNA” for “RNA”, “(Invitrogen),” for “(Invitrogen), DNaseI treated, and”, “(Qiagen). Sense” for “(Qiagen). sense”, “rXBP splicing” for “rXBP”

T1 sequence (O75460 547-977): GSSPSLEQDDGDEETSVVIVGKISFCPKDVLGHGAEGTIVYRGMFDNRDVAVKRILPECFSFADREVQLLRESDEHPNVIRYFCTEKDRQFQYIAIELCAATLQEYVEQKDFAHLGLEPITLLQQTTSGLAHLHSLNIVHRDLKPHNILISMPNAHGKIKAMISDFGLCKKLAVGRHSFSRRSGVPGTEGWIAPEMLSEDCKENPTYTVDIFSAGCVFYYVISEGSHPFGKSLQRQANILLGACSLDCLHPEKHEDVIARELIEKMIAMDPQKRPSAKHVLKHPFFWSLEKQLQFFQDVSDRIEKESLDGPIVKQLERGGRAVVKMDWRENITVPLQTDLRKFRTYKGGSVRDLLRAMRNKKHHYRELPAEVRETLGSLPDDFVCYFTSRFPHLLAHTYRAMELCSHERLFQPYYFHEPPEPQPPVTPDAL

IC50 (IRE1α*): 32 nM
SMILES: Cc1cc(NS(=O)(=O)C2(C)CC2)c2ccccc2c1Oc1ncccc1-c1ccnc(N[C@@H]2CNC[C@@H](F)C2)n1 [LBC-413, N-(4-((3-(2-(((3S,5S)-5-fluoropiperidin-3-yl)amino)pyrimidin-4-yl)pyridin-2-yl)oxy)-3-methylnaphthalen-1-yl)-1-methylcyclopropane-1-sulfonamide]
RIDD mRNA targets (Ins1, Ins2, Pdia4) [1]: block RIDD
% spliced XBP1 amplicons (XBP1 mRNA splicing): do not suppress XBP mRNA splicing
